Reference: US10358434B2, “2-(3-pyridinyl)-1H-benzimidazole derivative compound and medicament containing same” (NIHON MEDI-PHYSICS CO., LTD., priority 2014, dated 2019)
Several values for one entry are separate records, joined by “and”; a condition that tells them apart may be missing. Equal entries are not always repeated.

Experiments:
human CYP11B2 = biological target: T1, human CYP11B2 (Homo sapiens, UniProt P19099); assay: Aldosterone production inhibition in V79-B2 cells expressing human CYP11B2 (ELISA); format: cell-based; settings: for IC50: V79-B2 cells, corticosterone 100 nmol/L, 4 hours, aldosterone by ELISA, mean or mean ± SD; for Selectivity factor: mean IC50 cortisol production inhibition divided by mean IC50 aldosterone production inhibition
T1 construct: expressed in transfected cells; host or cells: V79 cells (Chinese hamster lung-derived fibroblasts, from ECACC through DS Pharma Biomedical)
T1 sequence (P19099 25-503): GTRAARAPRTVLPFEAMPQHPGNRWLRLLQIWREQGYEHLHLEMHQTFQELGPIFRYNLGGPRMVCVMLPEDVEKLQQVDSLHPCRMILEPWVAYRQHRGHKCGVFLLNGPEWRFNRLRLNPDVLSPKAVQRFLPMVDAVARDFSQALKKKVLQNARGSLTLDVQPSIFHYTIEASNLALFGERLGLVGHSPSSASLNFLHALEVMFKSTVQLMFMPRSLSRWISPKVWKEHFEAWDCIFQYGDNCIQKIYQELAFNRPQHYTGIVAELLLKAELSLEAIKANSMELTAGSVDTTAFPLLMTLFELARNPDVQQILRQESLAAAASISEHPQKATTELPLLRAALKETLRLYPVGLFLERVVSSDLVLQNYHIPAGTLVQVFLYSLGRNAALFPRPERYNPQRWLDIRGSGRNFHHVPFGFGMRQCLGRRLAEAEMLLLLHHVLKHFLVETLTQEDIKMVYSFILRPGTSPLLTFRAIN
Description: (§1) This inhibition experiment can be carried out by the following operations. Human CYP11B1 and human CYP11B2 are allowed to individually express in Chinese hamster lung-derived fibroblasts. Subsequently, 11-deoxycortisol is added to the cells expressing human CYP11B1 to a final concentration of 100 nmol/L, and corticosterone is added to the cells expressing human CYP11B2 to a final concentration of 100 nmol/L. At the same time, a target compound used as an analytical sample is added to each of the cells to a final concentration of 10^−4 to 10^4 nmol/L. Thereafter, the concentration of cortisol as a metabolite of CYP11B1 is measured in the cells expressing human CYP11B1 according to ELISA (Enzyme-Linked ImmunoSorbent Assay), and the concentration of aldosterone as a metabolite of CYP11B2 is measured in the cells expressing human CYP11B2 according to ELISA. Provided that the aldosterone concentration and the cortisol concentration without addition of any target compound as a sample are each set at 100%, an inhibition curve is produced, and then inhibitory activity (IC50) is calculated.
(§2) Chinese hamster lung-derived fibroblasts, V79 cells (acquired from ECACC (European Collection of Cell Cultures) through DS Pharma Biomedical), were allowed to express human CYP11B2, so as to produce V79-B2, and were also allowed to express human CYP11B1, so as to produce V79-B1. V79 cells were cultured in a DMEM medium (containing 4,500 mg/L D-glucose, L-glutamine, and 110 mg/L sodium pyruvate; manufactured by Life Technologies). V79-B2 or V79-B1 was inoculated on a microplate, and then cultured overnight. Thereafter, a mixed solution of corticosterone and a compound as a test target was added into a culture supernatant of V79-B2, and a mixed solution of 11-deoxycortisol and a compound as a test target was added into a culture supernatant of V79-B1. As a solvent for these mixed solutions, the aforementioned DMEM medium further containing 0.1 v/v % dimethyl sulfoxide was used. The concentration of corticosterone or 11-deoxycortisol was adjusted to be 100 nmol/L by addition of the solvent. As test target compounds, (R)-4-iodometomidate (IMTO), and Compounds 100, 200, 300, 400, 500, and 601 to 610 synthesized by methods shown in Examples 1, 3, 5, 6, 8, 10, 12, 14, 16, 18, 20, 22, 24, 26, and 28, respectively, were used. The aforementioned mixed solution was prepared such that the concentration of each compound was 10^−4 to 10^4 nmol/L in the mixed solution. One hour later, the culture supernatant of V79-B1 was recovered, and the concentration of cortisol as a metabolite of CYP11B1 was measured by ELISA (Enzyme-Linked ImmunoSorbent Assay). Moreover, four hours later, the culture supernatant of V79-B2 was recovered, and the concentration of aldosterone as a metabolite of CYP11B2 was measured by ELISA. Provided that the concentration of aldosterone or the concentration of cortisol obtained when none of IMTO and Compounds 100, 200, 300, 400 and 500 was added was defined as 100%, an inhibition curve was produced, and the inhibitory activity (IC50) of each compound was then calculated.
(§3) In Tables 5 and 6, the term “Selectivity factor” indicates a quotient of the mean value of IC50 for cortisol production inhibition divided by the mean value of IC50 for aldosterone production inhibition. In addition, the symbol “n” indicates the number of tests.

human CYP11B1 = biological target: T2, human CYP11B1 (Homo sapiens, UniProt P15538); assay: Cortisol production inhibition in V79-B1 cells expressing human CYP11B1 (ELISA); format: cell-based; settings: 11-deoxycortisol 100 nmol/L, 1 hour, cortisol by ELISA, mean or mean ± SD
T2 construct: expressed in transfected cells; host or cells: V79 cells (Chinese hamster lung-derived fibroblasts, from ECACC through DS Pharma Biomedical)
T2 sequence (P15538 25-503): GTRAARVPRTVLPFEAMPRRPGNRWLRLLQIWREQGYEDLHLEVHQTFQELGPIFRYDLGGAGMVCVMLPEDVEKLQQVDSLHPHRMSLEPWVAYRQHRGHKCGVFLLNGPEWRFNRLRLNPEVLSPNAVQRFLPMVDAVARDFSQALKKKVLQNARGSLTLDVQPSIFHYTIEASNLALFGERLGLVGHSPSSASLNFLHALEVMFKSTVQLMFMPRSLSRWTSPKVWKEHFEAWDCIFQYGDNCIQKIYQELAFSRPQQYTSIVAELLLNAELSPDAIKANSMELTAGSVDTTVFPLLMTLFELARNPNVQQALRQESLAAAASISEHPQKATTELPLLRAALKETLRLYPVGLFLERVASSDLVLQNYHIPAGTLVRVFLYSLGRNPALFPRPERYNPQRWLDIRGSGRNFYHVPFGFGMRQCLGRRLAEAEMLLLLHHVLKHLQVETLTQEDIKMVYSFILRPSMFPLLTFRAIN
Description: as §1, §2, §3

For `Ic1ccc2nc(-c3cncc(Cn4ccnc4)c3)n(C3CC3)c2c1` [Compound 602, 1-Cyclopropyl-2-[3-(1H-imidazol-1-ylmethyl)pyridin-5-yl]-6-iodo-1H-benzimidazole], the IC50 (human CYP11B2) was 2.17 nM, the Selectivity factor (human CYP11B2) was 20.5 and the IC50 (human CYP11B1) was 44.5 nM.
Work on `CCn1c(-c2cncc(Cn3ccnc3)c2)nc2ccc(I)cc21` [Compound 608, 2-[5-{(1H-imidazol-1-yl)methyl}pyridin-3-yl]-1-ethyl-6-iodo-1H-benzo[d]imidazole] yielded an IC50 (human CYP11B2) of 6.58 nM, a Selectivity factor (human CYP11B2) of 7.93 and an IC50 (human CYP11B1) of 52.2 nM.
In the case of `Cn1c(-c2cncc(Cn3ccnc3)c2)nc2ccc(I)cc21` [Compound 607, 2-[5-{(1H-imidazol-1-yl)methyl}pyridin-3-yl]-6-iodo-1-methyl-1H-benzo[d]imidazole], the IC50 (human CYP11B2) is reported as 0.93 nM, the Selectivity factor (human CYP11B2) is reported as 7.62 and the IC50 (human CYP11B1) is reported as 7.07 nM.
With `COC(=O)c1cncn1[C@H](C)c1ccc(I)cc1` [IMTO, (R)-4-iodometomidate, reference compound] the IC50 (human CYP11B2) was 0.21 nM and 0.24 nM, the Selectivity factor (human CYP11B2) was 1.01 and 1.03 and the IC50 (human CYP11B1) was 0.22 nM and 0.25 nM.
Compound `FCCn1c(-c2cncc(Cn3ccnc3)c2)nc2ccc(I)cc21` [Compound 604, 1-(2-Fluoroethyl)-2-[5-{(imidazol-1-yl)methyl}pyridin-3-yl]-6-iodobenzimidazole] has an IC50 (human CYP11B2) of 4.54 nM, a Selectivity factor (human CYP11B2) of 11.9 and an IC50 (human CYP11B1) of 54 nM.
Work on `FCCn1c(-c2cncc(Cn3ccnc3)c2)nc2cc(F)c(Cl)cc21` [Compound 100, 6-Chloro-5-fluoro-1-(2-fluoroethyl)-2-[5-(imidazol-1-ylmethyl)pyridin-3-yl]benzimidazole] yielded an IC50 (human CYP11B2) of 6.9 ± 2.87 nM, a Selectivity factor (human CYP11B2) of 15.8 and an IC50 (human CYP11B1) of 109 ± 15.8 nM.
`Fc1cc2nc(-c3cncc(Cn4ccnc4)c3)n(Cc3ccc(I)cc3)c2cc1Cl` [Compound 605, 6-Chloro-5-fluoro-1-(4-iodobenzyl)-2-[5-(1H-imidazol-1-ylmethyl)-3-pyridinyl]-1H-benzimidazole] was tested, and the IC50 (human CYP11B2) was 204 nM, the Selectivity factor (human CYP11B2) was 1.76 and the IC50 (human CYP11B1) was 359 nM.
Work on `COC(=O)c1cncn1Cc1cncc(-c2nc3cc(F)c(Br)cc3n2CCO)c1` [Compound 300, 2-{6-Bromo-5-fluoro-2-[5-(5-methylcarboxylateimidazol-1-ylmethyl)pyridin-3-yl]benzimidazol-1-yl}ethanol] yielded an IC50 (human CYP11B2) of 10.6 nM, a Selectivity factor (human CYP11B2) of 1.79 and an IC50 (human CYP11B1) of 19 nM.
With `Ic1ccc2nc(-c3cncc(Cn4ccnn4)c3)n(C3CC3)c2c1` [Compound 603, 1-Cyclopropyl-2-[3-(1H-1,2,3-triazol-1-ylmethyl)pyridin-5-yl]-6-iodo-1H-benzimidazole] the IC50 (human CYP11B2) was 18.1 nM, the Selectivity factor (human CYP11B2) was 16.4 and the IC50 (human CYP11B1) was 296 nM.
Work on `FCCn1c(-c2cncc(Cn3ccnc3)c2)nc2cc(F)c(I)cc21` [Compound 400, 5-Fluoro-1-(2-fluoroethyl)-2-[5-(imidazol-1-ylmethyl)pyridin-3-yl]-6-iodobenzimidazole] yielded an IC50 (human CYP11B2) of 44.5 nM, a Selectivity factor (human CYP11B2) of 7.77 and an IC50 (human CYP11B1) of 345 nM.
Compound `CC(C)n1c(-c2cncc(Cn3ccnc3)c2)nc2ccc(I)cc21` [Compound 606, 2-[5-{(1H-imidazol-1-yl)methyl}pyridin-3-yl]-6-iodo-1-isopropyl-1H-benzo[d]imidazole] has an IC50 (human CYP11B2) of 116 nM, a Selectivity factor (human CYP11B2) of 3.17 and an IC50 (human CYP11B1) of 368 nM.
Compound `FCCCn1c(-c2cncc(Cn3ccnc3)c2)nc2cc(F)c(Cl)cc21` [Compound 500, 6-Chloro-5-fluoro-1-(3-fluoropropyl)-2-[5-(imidazol-1-ylmethyl)pyridin-3-yl]benzimidazole] has an IC50 (human CYP11B2) of 3.94 nM, a Selectivity factor (human CYP11B2) of 8.51 and an IC50 (human CYP11B1) of 33.5 nM.
Work on “Methyl 1-[4-(1-cyclopropyl-6-iodo-1H-imidazobenzo-2-yl)-3-pyridinylmethyl)]-1H-imidazolecarboxylate [Compound 601]” yielded an IC50 (human CYP11B2) of 3.09 nM, a Selectivity factor (human CYP11B2) of 12.2 and an IC50 (human CYP11B1) of 37.8 nM.
`FCCn1c(-c2cncc(Cn3cncc3I)c2)nc2cc(F)c(Cl)cc21` [Compound 610, 6-Chloro-5-fluoro-1-(2-fluoroethyl)-2-{5-(5-iodo-1H-imidazol-1-ylmethyl)pyridin-3-yl}benzimidazole] was tested, and the IC50 (human CYP11B2) was 9.81 nM, the Selectivity factor (human CYP11B2) was 9.27 and the IC50 (human CYP11B1) was 91 nM.
With `FCCn1c(-c2cncc(Cn3ccnc3)c2)nc2cc(F)c(Br)cc21` [Compound 200, 6-Bromo-5-fluoro-1-(2-fluoroethyl)-2-[5-(imidazol-1-ylmethyl)pyridin-3-yl]benzimidazole] the IC50 (human CYP11B2) was 7.47 nM, the Selectivity factor (human CYP11B2) was 19.0 and the IC50 (human CYP11B1) was 142 nM.
For `COc1cc(I)cc2c1nc(-c1cncc(Cn3ccnc3)c1)n2C1CC1` [Compound 609, 1-Cyclopropyl-2-[5-(imidazol-1-ylmethyl)pyridin-3-yl]-6-iodo-4-methoxybenzimidazole], the IC50 (human CYP11B2) was 1.49 nM, the Selectivity factor (human CYP11B2) was 10.4 and the IC50 (human CYP11B1) was 15.5 nM.
